Several values for one entry are separate records, joined by “and”; a condition that tells them apart may be missing. Identical values can stand only once. Entries after “also recorded” stand apart in the source; their conditions may differ.
Columns and labels:
Bacteroides fragilis = format: cell-based
Citrobacter [1] = format: cell-based
C. perfringens [2] = format: cell-based, Clostridium perfringens
E. coli [3] = format: cell-based
C. butyricum [4] = format: cell-based, Clostridium butyricum
E. coli [5] = format: cell-based; remark: listed apart in the source
Citrobacter [6] = format: cell-based; remark: listed apart in the source
C. butyricum [7] = format: cell-based, Clostridium butyricum; remark: listed apart in the source
C. perfringens [8] = format: cell-based, Clostridium perfringens; remark: listed apart in the source
B. fragilis = format: cell-based, Bacteroides fragilis
B. dentium = format: cell-based; design: key: Ø: without halo; + → +++: intensity of the halo; + → +++: intensity of the halo; + → +++: intensity of the halo; ↓: reduction in the microorganisms (here by 90%)
Bifidobacterium bifidum = format: cell-based; design: key to intensity of the halo / reduction in the microorganisms: Ø: without halo; + → +++: intensity of the halo; + → +++: intensity of the halo; + → +++: intensity of the halo; ↓: reduction in the microorganisms (here by 90%)
B. longum = format: cell-based; design: key: Ø: without halo; + → +++: intensity of the halo; + → +++: intensity of the halo; + → +++: intensity of the halo; ↓: reduction in the microorganisms (here by 90%)

Row | Compound | relative intensity of the color of the colonies (3 to 0) (Bacteroides fragilis) | color of the colonies (Citrobacter [1]) | colors due to the hydrolysis of the substrate (C. perfringens [2]) | relative intensity of the color of the colonies (3 to 0) (C. perfringens [2]) | color of the colonies (E. coli [3]) | relative intensity of the color of the colonies (3 to 0) (E. coli [3]) | relative intensity of the color of the colonies (3 to 0) (Citrobacter [1]) | color of the colonies (Bacteroides fragilis) | color of the colonies (C. perfringens [2]) | further results
1 | 5-bromo-4-chloro-3-indolyl-β-D-galactopyranoside [X-Gal] | 2 | cream-colored | difficult to see | 3 | all blue | 3 | – | – | – | halos around the colonies (C. perfringens [2]): blue-gray halos
2 | OC[C@@H]1O[C@@H](Oc2c[nH]c3cc(Cl)c(Br)cc23)[C@@H](O)[C@@H](O)[C@H]1O [Mag-Gal] | 1 | cream-colored and pink | – | 3 | – | 2 | 1 and 2 | – | – | growth of the colonies (C. butyricum [4]): did not grow; relative intensity of the color of the colonies (3 to 0) (C. butyricum [4]): 2
3 | O=P(O)(O)Oc1c[nH]c2cc(Cl)c(Br)cc12 [Mag-Phos] | – | cream-colored (darker center); also recorded: pink (pink agar) | difficult to see | 3 and 2 | cream-colored (darker center); also recorded: pink (pink agar) | 2 and 3 | 2 and 3 | cream-pink; also recorded: cream-colored with a brownish halo | – | –
4 | OC[C@H]1O[C@H](Oc2c[nH]c3cc(Cl)c(Br)cc23)[C@H](O)[C@@H](O)[C@H]1O [Mag-α-Gal] | – | cream-colored; also recorded: darker or light cream-colored | – | – | darker or light cream-colored; also recorded: cream-colored | – | – | – | cream-colored and pink | color of the colonies (C. butyricum [4]): cream-colored; also recorded: darker or light cream-colored
5 | O=P(O)(O)Oc1c[nH]c2ccc(Br)c(Cl)c12 [X-Phos] | 1 and 2 | – | – | 2 | very light greenish cream-colored; also recorded: darker | 2 and 3 | 3 | cream-colored when they are isolated, blue in group; also recorded: deep cream-colored, light brown | greenish cream-colored with a slight blue halo | color of the colonies (C. butyricum [4]): cream-colored; also recorded: cream-colored with a very light halo near the colony and then blue at the periphery; growth of the colonies (C. butyricum [4]): did not grow; relative intensity of the color of the colonies (3 to 0) (C. butyricum [4]): 2
6 | CC(=O)N[C@H]1[C@H](Oc2c[nH]c3ccc(Br)c(Cl)c23)O[C@H](CO)[C@@H](O)[C@@H]1O [X-acglmn] | – | cream-colored | – | – | cream-colored | – | – | cream-colored | cream-colored; also recorded: very slightly greenish cream-colored | –
7 | OC[C@H]1O[C@@H](Oc2c[nH]c3ccc(Br)c(Cl)c23)[C@H](O)[C@@H](O)[C@@H]1O [X-glu] | – | – | difficult to see | – | – | – | – | – | – | –
8 | O=C(O)[C@H]1O[C@@H](Oc2c[nH]c3ccc(Br)c(Cl)c23)[C@H](O)[C@@H](O)[C@@H]1O [X-glucu] | – | – | difficult to see | – | – | – | – | – | – | –
9 | N[C@@H]1CON=C1O [cycloserine] | – | – | – | – | – | – | – | – | – | growth in the presence of antibiotic (E. coli [5]): grow; growth in the presence of antibiotic (Citrobacter [6]): grow; growth in the presence of antibiotic (C. butyricum [7]): grow; growth in the presence of antibiotic (C. perfringens [8]): grow; growth in the presence of antibiotic (B. fragilis): grow
10 | ammoniacal iron citrate [AIC] | – | – | – | – | – | – | – | – | – | intensity of the halo (B. dentium): + and ++; bacterial count (Bifidobacterium bifidum): reduction in the number of microorganisms; halo around the colonies (Bifidobacterium bifidum): more intense; also recorded: became visible; intensity of the halo (Bifidobacterium bifidum): + and ++ and +++↓; reduction in the microorganisms (Bifidobacterium bifidum): +++↓; intensity of the halo (B. longum): + and ++

Source: patent publication US20050148044A1 (priority 1999, published 2005)
